Results as given in US4165384A, “Amide substituted phenoxy propanol amines” (priority 1974, dated 1979).
Read-outs that look alike come from different tables or passages of the source.

Experiments:
cardial β-receptors = molecular target: T1, cardial β-receptors (Felis catus, UniProt Q9TST6); assay: Block of isoprenaline, heart rate (HR), reserpinized anesthetized cat; type: in vivo; conditions: iv, read-out: Block of isopren ED50 HR
T1 construct: from tissue; host or cells: heart in situ of anesthetized, reserpinized, vagotomized cat (in vivo, heart rate)
T1 sequence (Q9TST6 whole entry): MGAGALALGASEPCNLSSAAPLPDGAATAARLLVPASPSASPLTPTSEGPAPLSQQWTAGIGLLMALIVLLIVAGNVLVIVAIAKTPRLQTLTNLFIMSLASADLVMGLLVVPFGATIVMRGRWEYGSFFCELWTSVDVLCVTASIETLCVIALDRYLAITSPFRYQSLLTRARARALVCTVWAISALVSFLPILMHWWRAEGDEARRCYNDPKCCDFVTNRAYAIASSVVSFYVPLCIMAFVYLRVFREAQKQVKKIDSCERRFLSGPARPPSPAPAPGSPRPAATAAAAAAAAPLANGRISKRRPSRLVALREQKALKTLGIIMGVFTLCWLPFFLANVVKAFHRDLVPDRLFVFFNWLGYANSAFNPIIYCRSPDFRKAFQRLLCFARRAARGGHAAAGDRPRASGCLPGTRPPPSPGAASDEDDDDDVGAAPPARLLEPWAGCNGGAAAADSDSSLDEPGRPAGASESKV
Description: (§1) The β-receptor blocking agents of the present invention were tested as regards their biological properties. All compounds were thereby tested in anesthetized cats (males and females weighing 2.5-3.5 kg) pretreated with reserpine (5 mg/kg body weight administered intra musculary) about 16 hours before the experiments. The animals were pretreated with reserpine in order to eliminate the endogenous sympathetic control of heart rate and vascular smooth muscle tone. The cats were anaesthetized with pentobarbital (30 mg/kg body weight administered i.p.) and artifically ventilated with room air. A bilateral vagotomy was performed in the neck. Blood pressure was obtained from a cannulated carotid artery and heart rate was registered from a cardiotachometer, triggered by the electrocardiogram. (ECG) Intrinsic beta-mimetic activity on the heart was seen as increased heart rate after drug administration. The test compounds were given intravenously in logarithmically increasing doses. The values obtained were plotted on dose-response curves, from which affinity values (ED50) were estimated. At the end of each experiment high doses of isoprenaline were given in order to obtain the maximal heart rate response.

vascular β-receptors = molecular target: T2, vascular β-receptors (Felis catus, UniProt Q9TST5); assay: Block of isoprenaline, PR (vascular), reserpinized anesthetized cat; type: in vivo; conditions: iv, read-out: Block of isopren ED50 PR
T2 construct: from tissue; host or cells: vascular smooth muscle in situ of anesthetized, reserpinized cat (in vivo, isoprenaline vasodilation)
T2 sequence (Q9TST5 whole entry): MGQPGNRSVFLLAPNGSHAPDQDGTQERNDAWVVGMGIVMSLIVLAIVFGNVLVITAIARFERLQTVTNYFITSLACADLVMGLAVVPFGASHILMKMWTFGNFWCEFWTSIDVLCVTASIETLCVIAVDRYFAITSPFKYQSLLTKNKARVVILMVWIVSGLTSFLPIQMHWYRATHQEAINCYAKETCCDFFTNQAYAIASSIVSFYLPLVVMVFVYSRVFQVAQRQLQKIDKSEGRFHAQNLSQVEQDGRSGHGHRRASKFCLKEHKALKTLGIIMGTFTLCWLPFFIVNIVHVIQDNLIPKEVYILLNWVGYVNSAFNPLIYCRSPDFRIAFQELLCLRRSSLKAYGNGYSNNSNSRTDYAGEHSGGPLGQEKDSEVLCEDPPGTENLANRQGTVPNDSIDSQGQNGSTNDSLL
Description: as §1

heart = assay: Intrinsic β-mimetic activity on the heart (increased heart rate), reserpinized cat; type: in vivo; conditions: i.v.
Description: as §1

[1] = Effect on arterial blood pressure in conscious dogs; type: in vivo, Beagle dogs; conditions: conscious dog, after 1.5 mg/kg i.v.; for ΔBP Supino: supine
Description: The compounds were also tested on conscious dogs. Beagle dogs were trained to be lying quietly and to be lifted to an erect position by placing their forelegs on a table for 2 minutes. Arterial blood pressure was registered via a blood pressure transducer attached to the dog at the heart level. Heart rate was triggered from the ECG. All dogs were pretreated with methylscopolamine to avoid vagal influences. Recordings were taken before and 15 and 75 min after administration of the test compound, first in supine position for 2 min and then in the erect position for 2 minutes. The test compounds were given in increasing doses with 2 hours intervals.

[2] = reserpinized cat, i.v., heart rate

Row | Compound | ED50 (cardial β-receptors; [2]) [mg/kg] | ED50 (vascular β-receptors; reserpinized cat, i.v., PR) [mg/kg] | Intrinsic activity (heart) | ΔBP Erect [1] [mm Hg] | ΔBP Supino [1] | ED50 (cardial β-receptors; cat) [mg/kg] | ED50 (vascular β-receptors; cat) [mg/kg]
1 | C#CCOc1ccccc1OCC(O)CNCCOc1ccc(C(N)=O)cc1 (stereo not drawn) [Ex 18] | 0.04 | 0.3 | +13 beats/min |  |  |  | 
2 | CC(C)NCC(O)COc1cccc2ccccc12 (stereo not drawn) [Propranolol, 1-isopropylamino-3-(1-naphtoxy)-propanol-2, reference compound] |  |  | 0 beats/min | 0 | +5 mm Hg |  | 
3 | COCCc1ccc(OCC(O)CNCCOc2ccc(C(N)=O)cc2)cc1 (stereo not drawn) [Ex 3, 1-[2-(4-carbamylphenoxy)ethylamino]-3-(2-methoxyethyl)phenoxypropanol-2] | 1.1 | 8.5 | 0 beats/min |  |  |  | 
4 | COC(=O)NCCc1ccc(OCCNCC(O)COc2ccccc2C)cc1 (stereo not drawn) [Ex 9, 1-[4-(2-(2-methoxycarbonylamino)ethyl)phenoxyethylamino]-3-(2-methylphenoxy)-propanol-2] | 0.3 | 2.4 | +40 beats/min |  |  |  | 
5 | NC(=O)Cc1ccccc1OCC(O)CNCCOc1ccc(C(N)=O)cc1 (stereo not drawn) [Ex 19] | 1.7 | < 8.5 | 0 beats/min |  |  |  | 
6 | CC(=O)Nc1ccc(OCC(O)CNC(C)C)cc1 (stereo not drawn) [Practolol, 4-(2-hydroxy-3-isopropylaminopropoxy)acetanilide, reference compound] | 0.3 | 35 | +15 beats/min |  |  |  | 
7 | COCCc1ccc(OCC(O)CNC(C)C)cc1 (stereo not drawn) [Metroprolol, 1-isopropylamino-3-[4-(2-methoxyethyl)phenoxy]-propanol-2, reference compound] |  |  | 0 beats/min | -3 | -5 mm Hg | 0.2 | 4.7
8 | NC(=O)c1ccc(OCCNCC(O)COc2ccccc2OCC(=O)NCCO)cc1 (stereo not drawn) [Ex 20, 1-[2-(4-carbamylphenoxy)ethylamino]-3-[2-(ω-hydroxyethylaminocarbonylmethoxy)phenoxy]-propanol-2] | 0.03 | < 8.5 |  |  |  |  | 
9 | C=CCOc1ccccc1OCC(O)CNCCOc1ccc(C(N)=O)cc1 (stereo not drawn) [Ex 17] | 0.1 | 1.5 | +8 beats/min | -46 | -23 mm Hg |  | 
10 | Cc1ccc(Cl)c(OCC(O)CNCCOc2ccc(C(N)=O)cc2)c1 (stereo not drawn) [Ex 2, 1-[2-(4-carbamylphenoxy)ethylamino]-3-(2-chloro-5-methylphenoxy)propanol-2] | 0.3 | 4.6 | 0 beats/min |  |  |  | 
11 | C=CCc1ccccc1OCC(O)CNC(C)COc1ccccc1C (stereo not drawn) [Ex 6, 1-[1-methyl-2-(2-methylphenoxy)-ethylamino]-3-(2-allylphenoxy)propanol-2] | 0.5 | 0.5 | +24 beats/min |  |  |  | 
12 | NC(=O)c1ccc(OCCNCC(O)COc2ccccc2Cl)cc1 (stereo not drawn) [Ex 11, 1-[2-(4-carbamoylphenoxy)ethylamino]-3-(2-chlorophenoxy)propanol-2] | 0.05 | 1 | +16 beats/min | -20 | -28 mm Hg |  | 
13 | C=CCc1ccccc1OCC(O)CNCCOc1ccc(C(N)=O)cc1 (stereo not drawn) [Ex 1, 1[2-(4-carbamylphenoxy)-ethylamino]-3-(2-allylphenoxy)propanol-2] | 0.3 | 1.8 | 0 beats/min | -45 | -28 mm Hg |  | 
14 | C=CCc1ccccc1OCC(O)CNC(C)COc1ccc(C(N)=O)cc1 (stereo not drawn) [Ex 5, 1-[1-methyl-2-(4-carbamylphenoxy)ethylamino]-3-(2-allylphenoxy)propanol-2] | 0.05 | 0.2 | +15 beats/min | -42 | -43 mm Hg |  | 
